{"source": "patent US20080166403A1", "about": "“Long circulating liposome” (Industrial Technology Research Institute, priority 2003, published 2008)", "assay": "Circulation time of liposomes in the body: Doxorubicin concentration in rat blood by a pharmacokinetics method with HPLC analysis", "assay_type": "in vivo", "conditions": "8 hours after injection, FIG. 1", "protocol": "In this example, the concentration of Doxorubicin in the blood is determined by a pharmacokinetics method, and HPLC analysis is performed subsequently.\nDoxo. is compared with DO503 liposomes (Example 1) and DO502 liposomes (Example 2), wherein Doxo. represents the free doxorubicin solution. […] Especially for DO503, it even exists in rat blood 48 hours after injection."}
{"compound": "COc1cccc2c1C(=O)c1c(O)c3c(c(O)c1C2=O)C[C@@](O)(C(=O)CO)C[C@@H]3O[C@H]1C[C@H](N)[C@H](O)[C@H](C)O1", "note": "[Doxo., doxorubicin]", "values": [{"measurement": "Doxorubicin concentration in rat blood", "value": "almost no Doxorubicin concentration detected"}]}
